In patent US20240158393A1, “PYRIDONE COMPOUNDS AND METHODS OF USE” (Exelixis, Inc., priority 2021, published 2024):
Structures can show the parent of a compound that is named as a salt.

How the values were obtained:
[1] = target: T1, Human Mer (Homo sapiens, UniProt Q12866); assay: Human Mer kinase assay (33P radiometric / HTRF KinEase); type: biochemical; conditions: protocols of Examples C-1 and/or C-2
T1 construct: Human Mer (residues R557-E882 with H628Q and R794A, 0.7 nM); purchased Eurofins Pharma Discovery Services UK Limited (KinaseProfiler service)
T1 sequence (Q12866 557-882 limits assumed): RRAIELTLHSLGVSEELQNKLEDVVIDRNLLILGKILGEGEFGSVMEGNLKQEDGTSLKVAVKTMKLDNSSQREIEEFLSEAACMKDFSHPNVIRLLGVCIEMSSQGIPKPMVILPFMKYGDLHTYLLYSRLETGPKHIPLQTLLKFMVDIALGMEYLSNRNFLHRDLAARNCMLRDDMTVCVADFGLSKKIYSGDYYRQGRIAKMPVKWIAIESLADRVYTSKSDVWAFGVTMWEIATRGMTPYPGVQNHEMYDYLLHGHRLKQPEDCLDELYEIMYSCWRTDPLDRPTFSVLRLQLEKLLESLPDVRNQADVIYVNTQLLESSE
Outline: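 Two formats yield IC50 values. HTRF KinEase used MER residues 528-999 with ATP at Km (40 μM), 1 μM biotin-peptide, 60 min RT, […], 10 concentrations. 33P filter assay used 0.7 nM Mer R557-E882 (H628Q/R794A), 10 μM ATP, 250 μM peptide, 40 min RT, top 1 μM.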

[2] = target: T2, Human KDR (Homo sapiens, UniProt P35968); assay: Human KDR kinase assay (33P radiometric / HTRF KinEase); type: biochemical; conditions: protocols of Examples B-1 and/or B-2
T2 construct: Human KDR (residues K790-V1356, 55 nM); purchased Eurofins Pharma Discovery Services UK Limited (KinaseProfiler, B-1) and/or CarnaBio (B-2)
Outline: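 Radiometric: KDR K790-V1356 (55 nM), MOPS pH 7.0, myelin basic protein, 10 μM [γ-33P]ATP, 40 min at room temperature, filter-bound 33P counted; nine half-log doses, top 1 μM. HTRF: KDR 790-1356, 1 μM biotinylated peptide, ATP at Km (4.0 μM), 40 min, 10 doses. IC50 from logistic fits.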

T2 sequence (P35968 790-1356): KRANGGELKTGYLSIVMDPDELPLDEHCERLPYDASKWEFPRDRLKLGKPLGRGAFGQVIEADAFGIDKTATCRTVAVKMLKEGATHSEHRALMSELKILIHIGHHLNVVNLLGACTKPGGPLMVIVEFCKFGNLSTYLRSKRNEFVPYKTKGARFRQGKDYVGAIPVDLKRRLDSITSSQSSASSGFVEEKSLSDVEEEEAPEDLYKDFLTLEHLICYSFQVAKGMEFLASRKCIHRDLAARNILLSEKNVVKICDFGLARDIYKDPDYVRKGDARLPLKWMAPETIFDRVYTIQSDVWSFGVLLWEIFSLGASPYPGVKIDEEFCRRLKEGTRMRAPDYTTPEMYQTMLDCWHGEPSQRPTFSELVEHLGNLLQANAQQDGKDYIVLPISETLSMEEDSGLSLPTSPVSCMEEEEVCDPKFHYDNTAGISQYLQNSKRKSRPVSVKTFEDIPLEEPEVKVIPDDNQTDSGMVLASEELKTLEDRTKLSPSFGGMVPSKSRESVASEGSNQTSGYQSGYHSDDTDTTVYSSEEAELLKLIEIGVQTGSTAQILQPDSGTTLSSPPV

IC50 [1] [µM] | IC50 [2] [µM] | SMILES
≤ 0.1 | > 0.3 | COc1cc2nccc(Oc3ccc(NC(=O)c4c(C)n(C)c(C)c(/C=C/C5CC5)c4=O)cc3F)c2nc1OC [Compound 50, 5-[(E)-2-Cyclopropylethenyl]-N-[4-[(6,7-dimethoxy-1,5-naphthyridin-4-yl)oxy]-3-fluorophenyl]-1,2,6-trimethyl-4-oxopyridine-3-carboxamide]
≤ 0.1 | ≤ 0.1 | COc1cc2nccc(Oc3ccc(NC(=O)c4c(C)nc(C)c(C(C)C)c4O)cc3)c2nc1OC [Compound 9, N-[4-[(6,7-Dimethoxy-1,5-naphthyridin-4-yl)oxy]phenyl]-4-hydroxy-2,6-dimethyl-5-propan-2-ylpyridine-3-carboxamide]
> 0.3 | 0.1 to 0.3 | CNC(=O)c1c(C)nc(C)c(C(=O)Nc2ccc(Oc3ccnc4cc(OC)c(OC)nc34)c(F)c2)c1O [Compound 97, 3-N-[4-[(6,7-Dimethoxy-1,5-naphthyridin-4-yl)oxy]-3-fluorophenyl]-4-hydroxy-5-N,2,6-trimethylpyridine-3,5-dicarboxamide]
≤ 0.1 | ≤ 0.1 | COCCOc1cc2nccc(Oc3ccc(NC(=O)c4c(C)n(C)c(C)c(C5=CCCC5)c4=O)cc3F)c2nc1OC [Compound 42, 5-(Cyclopenten-1-yl)-N-[3-fluoro-4-[[6-methoxy-7-(2-methoxyethoxy)-1,5-naphthyridin-4-yl]oxy]phenyl]-1,2,6-trimethyl-4-oxopyridine-3-carboxamide]
≤ 0.1 | ≤ 0.1 | COc1cc2nccc(Oc3ccc(NC(=O)c4cnc(C)c(/C=C/CC(C)C)c4O)cc3F)c2cc1OC [Compound 29, N-[4-(6,7-Dimethoxyquinolin-4-yl)oxy-3-fluorophenyl]-4-hydroxy-6-methyl-5-[(E)-4-methylpent-1-enyl]pyridine-3-carboxamide]
> 0.3 | > 0.3 | COc1cc2nccc(Oc3ccc(NC(=O)c4c(C)nc(C)c(C(N)=O)c4O)cc3)c2nc1OC [Compound 85, 3-N-[4-[(6,7-Dimethoxy-1,5-naphthyridin-4-yl)oxy]phenyl]-4-hydroxy-2,6-dimethylpyridine-3,5-dicarboxamide]
> 0.3 | > 0.3 | COc1cc2nccc(Oc3ccc(NC(=O)c4c(C)n(C)c(C)c(C#N)c4=O)cc3)c2nc1OC [Compound 82, 5-Cyano-N-[4-[(6,7-dimethoxy-1,5-naphthyridin-4-yl)oxy]phenyl]-1,2,6-trimethyl-4-oxopyridine-3-carboxamide]
≤ 0.1 | ≤ 0.1 | COc1cc2nccc(Oc3ccc(NC(=O)c4c(C)nc(C)c(C(C)C)c4O)cc3F)c2nc1OC [Compound 31, N-[4-[(6,7-Dimethoxy-1,5-naphthyridin-4-yl)oxy]-3-fluorophenyl]-4-hydroxy-2,6-dimethyl-5-propan-2-ylpyridine-3-carboxamide]
≤ 0.1 | ≤ 0.1 | COc1cc2nccc(Oc3ccc(NC(=O)c4cnc(C)c(/C=C/C5CCCC5)c4O)cc3F)c2nc1OC [Compound 25, 5-[(E)-2-Cyclopentylethenyl]-N-[4-[(6,7-dimethoxy-1,5-naphthyridin-4-yl)oxy]-3-fluorophenyl]-4-hydroxy-6-methylpyridine-3-carboxamide]
≤ 0.1 | 0.1 to 0.3 | COc1cc2nccc(Oc3ccc(NC(=O)c4c(C)n(C)c(C)c(N5CCCCC5)c4=O)cc3F)c2nc1OC [Compound 90, N-[4-[(6,7-dimethoxy-1,5-naphthyridin-4-yl)oxy]-3-fluorophenyl]-1,2,6-trimethyl-4-oxo-5-piperidin-1-ylpyridine-3-carboxamide]
≤ 0.1 | ≤ 0.1 | COc1cc2nccc(Oc3ccc(NC(=O)c4c(C)nc(C)c(C5=CCCC5)c4O)cc3F)c2nc1OC [Compound 1-2, 5-(Cyclopenten-1-yl)-N-[4-[(6,7-dimethoxy-1,5-naphthyridin-4-yl)oxy]-3-fluorophenyl]-4-hydroxy-2,6-dimethylpyridine-3-carboxamide hydrochloride]
≤ 0.1 | ≤ 0.1 | C=C(C)n1c(C)cc(C)c(C(=O)Nc2ccc(Oc3ccnc4cc(OC)c(OC)nc34)c(F)c2)c1=O [Compound 20, N-[4-[(6,7-Dimethoxy-1,5-naphthyridin-4-yl)oxy]-3-fluorophenyl]-4,6-dimethyl-2-oxo-1-prop-1-en-2-ylpyridine-3-carboxamide]
